Target: GilOI (Streptomyces griseoflavus, UniProt Q7X2G6)
Experiment: cofactor content of the purified enzyme
Assay type: binding

Cc1cc2nc3c(=O)[nH]c(=O)nc-3n(C[C@H](O)[C@H](O)[C@H](O)COP(=O)(O)OP(=O)(O)OC[C@H]3O[C@@H](n4cnc5c(N)ncnc54)[C@H](O)[C@@H]3O)c2cc1C [flavin adenine dinucleotide]
cofactor content of the purified enzyme (Figure S3): GilOI and GilOIV are oxygenases that contain flavin adenine dinucleotide (FAD, Figure S3

From PMC3343456 (Angewandte Chemie (International ed. in English), 2011)
